Measurements published in ChEMBL document CHEMBL3430912, “GSK Tres Cantos Anti-Kinetoplastid Screening (TCAKS) Data”.

How the values were obtained:
[1] = system: Trypanosoma cruzi; assay: (§1) GSK_TCAKS: pIC50 Trypanosoma cruzi Imaging: Amastigotes/Cell. […] Cells were then washed once with PBS before infection. T. cruzi trypomastigotes, collected at days 5 to 8 after infection from LLC-MK2 parasite infected cultures, were allowed to swim out for 4h at 37C from a centrifuged pellet (2,500 rpm/10 min/room temperature). Trypomastigotes were then collected and counted in a CASY Cell Counter. Trypomastigotes, in supplemented DMEM, were added to H9c2 cultures in a multiplicity of infection of 1 and incubated for 18 h. Cells were washed once with PBS before incubation of the infected H9c2 monolayer with trypsin (Life-Technologies) to detach cells from the flask. Cells were counted in a CASY Cell Counter using a 150 um capillary and their density set at 5 * 10^4 cells per mL in supplemented assay DMEM. Infected H9c2 were dispensed into 384-well poly-lysine coated assay plates at 50uL per well using a Multidrop Combi dispenser. After seeding them, the plates were incubated at 37C, 5% CO2 for 72h. Cultures were then fixed and stained by addition of 50 uL of a solution containing 8% formaldehyde and 4 uM DRAQ5 DNA dye (BioStatus, UK) per well. […] Five images were collected per well for reliable statistical analysis. Automated image analysis was performed with a script developed on Acapella High Content Imaging and Analysis Software (PerkinElmer). Output: number of amastigotes per cell as infection level measurement.; assay type: functional, organism-based, Rattus norvegicus; conditions: H9c2, 4 h
[2] = system: Trypanosoma brucei brucei; assay: GSK_TCAKS: pIC50 Trypanosoma brucei viability assay using luminiscence. Assay plates (1536-well) were prepared. T. brucei cultures were harvested and counted in a CASY cell counter. A parasite suspension was prepared at a final concentration of 5 * 10^4 cells/mL in complete HMI9 medium and 6uL was dispensed to all wells containing compounds using a Multidrop Combi dispenser. 6uL of HMI9 media with 0.4% DMSO were dispensed to control columns. Plates were incubated for 24 h at 37C, 5% CO2 then tempered for 10 min at room temperature. ATP content was quantified by adding 4 uL of CellTiter-Glo Reagent (Promega) according to the manufacturer's instructions. Luminescence was measured using a ViewLux.; assay type: functional, organism-based; conditions: Lister 427, CASY
[3] = system: Trypanosoma cruzi; assay: as §1, with “H2C9” for “Trypanosoma cruzi”, “H9c2 Host Cardiomyocytes.” for “Amastigotes/Cell.”, “Number” for “number”, “H9c2 Host Cardiomyocytes nuclei to determine drug-related cytotoxicity.” for “amastigotes per cell as infection level measurement.”; assay type: functional, organism-based, Rattus norvegicus; conditions: H9c2, 4 h
[4] = system: NIH3T3; assay: GSK_TCAKS: pIC50 NIH 3T3 cell line viability assay using luminiscence. Tissue culture surface treated assay plates (1536-well) were used. […] The 100% cells survival control was determined exposing the host-cells to a 0.5% DMSO concentration, whereas the 100% toxicity control was achieved by seeding the cells in presence of Amphotericin B at 50uM. Plates were incubated for four days at 37C, 5% CO2. The assay readout was developed by addition of 5uL of CellTiter-Glo Reagent following the manufacturer's instructions. Luminiscence was measured using a ViewLux.; assay type: functional, cell-based; conditions: Mus musculus, NIH3T3, 96 h
[5] = system: Leishmania donovani; assay: GSK_TCAKS: pIC50 Leishmania donovani Imaging: THP-1 Host Macrophages. Assay plates (384-well) were prepared by adding 250nL of compound to each well. For single shot assay, the final compound concentration was 5 uM. […] Automated image analysis was performed with a script developed on Acapella High Content Imaging and Analysis Software (PerkinElmer). Output: THP-1 cell count were reported for each well.; assay type: functional, organism-based, Homo sapiens
[6] = system: Trypanosoma cruzi; assay: GSK_TCAKS: pIC50 Trypanosoma cruzi Imaging: Infected Cells. […] Cells were then washed once with PBS before infection. T. cruzi trypomastigotes, collected at days 5 to 8 after infection from LLC-MK2 parasite infected cultures, were allowed to swim out for 4h at 37C from a centrifuged pellet (2,500 rpm/10 min/room temperature). Trypomastigotes were then collected and counted in a CASY Cell Counter. Trypomastigotes, in supplemented DMEM, were added to H9c2 cultures in a multiplicity of infection of 1 and incubated for 18 h. Cells were washed once with PBS before incubation of the infected H9c2 monolayer with trypsin (Life-Technologies) to detach cells from the flask. Cells were counted in a CASY Cell Counter using a 150 um capillary and their density set at 5 * 10^4 cells per mL in supplemented assay DMEM. Infected H9c2 were dispensed into 384-well poly-lysine coated assay plates at 50uL per well using a Multidrop Combi dispenser. After seeding them, the plates were incubated at 37C, 5% CO2 for 72h. Cultures were then fixed and stained by addition of 50 uL of a solution containing 8% formaldehyde and 4 uM DRAQ5 DNA dye (BioStatus, UK) per well. […] Five images were collected per well for reliable statistical analysis. Automated image analysis was performed with a script developed on Acapella High Content Imaging and Analysis Software (PerkinElmer). Output: percentage of infected cells per well as a second infection marker.; assay type: functional, organism-based, Rattus norvegicus; conditions: H9c2, 4 h
[7] = system: Leishmania donovani; assay: GSK_TCAKS: pIC50 Leishmania donovani Imaging: Infected Macrophages. Assay plates (384-well) were prepared by adding 250nL of compound to each well. For single shot assay, the final compound concentration was 5 uM. […] Automated image analysis was performed with a script developed on Acapella High Content Imaging and Analysis Software (PerkinElmer). Output: Percent of infected macrophage cells were reported for each well.; assay type: functional, organism-based, Homo sapiens; conditions: THP-1
[8] = GSK_TCAKS: pIC50 HepG2 human cell line viability assay using luminiscence. […] Seeding density was checked to ensure that new mono-layers were not more than 50% confluent at the time of harvesting. Cell suspension was added to 500 mL of the same medium at a final density of 1.2 * 10^5 cells/mL. This cell suspension was dispensed (25 uL, 3000 cells per well) into 384-well clear-bottom plates using a Multidrop Combi dispenser. Prior to addition of the cell suspension, the screening compounds (250 nL) were pre-dispensed into the plates with an Echo liquid handler. Plates were incubated for 48 h at 37C, 5% CO2. After incubation, plates equilibrated at room temperature for 30 min before proceeding to develop the luminescent signal. The signal developer, CellTiter-Glo Reagent, was allowed to equilibrate at room temperature for 30 min and added to the plates (25uL per well) using a Multidrop Combi dispenser. Plates were left for 10 min at room temperature for stabilization and then read using a ViewLux.; assay type: toxicity, cell-based
[9] = system: Leishmania donovani; assay: GSK_TCAKS: pIC50 Leishmania donovani viability assay using fluorescence intensity. Assay plates (1536-well) were prepared by adding 30nL per well of compound. For single shot assay, the final compound concentration was 5uM. […] Briefly, eGFP LdBOB axenic amastigotes were harvested, fixed and counted in a CASY cell counter (Roche-Applied Science). A final concentration of 1.5 * 10^5 cells per well were prepared in amastigote media containing 500 U/mL penicillin/streptomycin (Invitrogen) and 6uL was dispensed to each experimental well using a Multidrop Combi dispenser (Thermo Scientific). 6uL of assay media was dispensed to control columns used as reference for 100% compound response. Following incubation for 72 h at 37C, 5% CO2, 2 uL of resazurin was added to each well at a final concentration of 0.5 mM in phosphate buffered saline (PBS) with IGEPAL (Sigma-Aldrich), 0.05% (v/v).; assay type: functional, organism-based
[10] = target: Sterol 14-alpha demethylase (Trypanosoma cruzi (strain CL Brener), UniProt Q7Z1V1); assay: GSK_TCAKS: pIC50 CYP51 from Trypanosoma cruzi.; assay type: functional
Sequence of Sterol 14-alpha demethylase (Q7Z1V1 whole entry): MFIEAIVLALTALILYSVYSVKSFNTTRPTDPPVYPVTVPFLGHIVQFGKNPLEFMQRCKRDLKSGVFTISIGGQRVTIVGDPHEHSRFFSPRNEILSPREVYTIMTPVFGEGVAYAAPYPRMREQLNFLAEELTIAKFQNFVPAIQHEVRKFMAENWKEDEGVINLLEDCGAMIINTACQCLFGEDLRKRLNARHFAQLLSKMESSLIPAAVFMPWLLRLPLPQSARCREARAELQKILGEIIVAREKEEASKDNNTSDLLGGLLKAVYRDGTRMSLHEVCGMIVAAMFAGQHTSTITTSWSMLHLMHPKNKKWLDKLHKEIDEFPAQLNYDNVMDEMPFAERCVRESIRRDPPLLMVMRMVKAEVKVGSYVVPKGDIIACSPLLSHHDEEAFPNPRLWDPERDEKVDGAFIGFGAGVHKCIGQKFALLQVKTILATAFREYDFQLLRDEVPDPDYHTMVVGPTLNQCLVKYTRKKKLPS

[11] = system: Trypanosoma brucei brucei; assay: GSK_TCAKS: pIC50 Trypanosoma brucei viability assay using fluorescence intensity. Assay plates (1536-well) were prepared by dispensing 25nL of compound solution per well using an Echo acoustic dispenser (Labcyte).; assay type: functional, organism-based; conditions: Lister 427, 2 h
[12] = system: Leishmania donovani; assay: GSK_TCAKS: pIC50 Leishmania donovani Imaging: Amastigotes/Macrophages. Assay plates (384-well) were prepared by adding 250nL of compound to each well. For single shot assay, the final compound concentration was 5 uM. […] Automated image analysis was performed with a script developed on Acapella High Content Imaging and Analysis Software (PerkinElmer). Output: Average number of amastigotes per macrophage cell were reported for each well.; assay type: functional, organism-based, Homo sapiens; conditions: THP-1
[13] = system: Trypanosoma cruzi; assay: GSK_TCAKS: pIC50 Trypanosoma cruzi viability assay using beta-GAL activity. This assay was run at single shot at 5uM compound concentration per well. The biological reagents consisted of NIH-3T3 host cells and trypomastigotes parasitic cells; both cell types were set to a 3.3 * 10^5 cells/mL dilution in assay DMEM by means of a CASY cell counter device using a 60um capillary. 6 uL of the mixture were dispensed per well (about 1 * 10^3 host-cells and 1 * 10^3 parasites) with a Multidrop Combi dispenser. […] In all wells, the percentage of DMSO never exceeded 0.5%. Plates incubated for four days at 37C, 5% CO2. The substrate used for the assay fluorescence intensity (FLINT) readout was resorufin-beta-D-galactopiranoside (Sigma-Aldrich) at 5uM per well. It was diluted in PBS supplemented with the soft detergent Igepal (Fluka).; assay type: functional, organism-based, Mus musculus; conditions: Tulahuen, NIH3T3

Compound: COc1ccc(-c2nc3ncccc3o2)cc1NC(=O)c1cccs1
- IC50 [1]: 2 µM
- IC50 [2]: 2.51 µM
- IC50 [3]: > 50.1 µM
- IC50 [4]: > 50.1 µM
- IC50 [5]: 20 µM
- IC50 [6]: 2.51 µM
- IC50 [7]: > 50.1 µM
- IC50 at 48 h [8]: > 100 µM
- IC50 [9]: 5.01 µM
- IC50 [10]: > 100 µM
- IC50 [11]: 1.26 µM
- IC50 [12]: > 50.1 µM
- IC50 [13]: 2 µM

Compound: COc1ccc(C2CC(c3ccccc3Cl)=NN2C(=O)CNC(=O)C2CCC2)cc1 (stereo unspecified)
- IC50 [1]: 1 µM
- IC50 [2]: 0.501 µM
- IC50 [3]: > 50.1 µM
- IC50 [4]: 31.6 µM
- IC50 [5]: > 50.1 µM
- IC50 [6]: 1.58 µM
- IC50 [7]: > 50.1 µM
- IC50 at 48 h [8]: > 100 µM
- IC50 [9]: > 50.1 µM
- IC50 [10]: 50.1 µM
- IC50 [11]: 0.316 µM
- IC50 [12]: > 50.1 µM
- IC50 [13]: 2.82 µM

Compound: CCC(=O)Nc1ccc(-c2nc3ccc(Cl)cc3[nH]2)cc1
- IC50 [1]: 0.501 µM
- IC50 [2]: > 39.8 µM
- IC50 [3]: > 50.1 µM
- IC50 [4]: > 50.1 µM
- IC50 [5]: > 50.1 µM
- IC50 [6]: 1.58 µM
- IC50 [7]: > 50.1 µM
- IC50 at 48 h [8]: > 100 µM
- IC50 [9]: > 50.1 µM
- IC50 [10]: > 100 µM
- IC50 [11]: 6.31 µM
- IC50 [12]: > 50.1 µM
- IC50 [13]: 2 µM

Compound: N#Cc1cc([N+](=O)[O-])ccc1NC1CCCCCC1
- IC50 [1]: 1.26 µM
- IC50 [2]: 3.16 µM
- IC50 [3]: > 50.1 µM
- IC50 [4]: > 50.1 µM
- IC50 [5]: > 50.1 µM
- IC50 [6]: 2 µM
- IC50 [7]: > 50.1 µM
- IC50 at 48 h [8]: > 100 µM
- IC50 [9]: > 50.1 µM
- IC50 [10]: > 100 µM
- IC50 [11]: 2.51 µM
- IC50 [12]: > 50.1 µM
- IC50 [13]: 2.51 µM

Compound: Cc1nnnn1-c1cccc(C(=O)N2CCC[C@@]3(C)c4ncncc4CCC23)c1 (stereo partly specified)
- IC50 [1]: 0.316 µM
- IC50 [2]: > 39.8 µM
- IC50 [3]: > 50.1 µM
- IC50 [4]: > 50.1 µM
- IC50 [5]: > 50.1 µM
- IC50 [6]: 0.316 µM
- IC50 [7]: > 50.1 µM
- IC50 at 48 h [8]: > 100 µM
- IC50 [9]: 0.398 µM
- IC50 [10]: 25.1 µM
- IC50 [11]: > 39.8 µM
- IC50 [12]: 6.31 µM
- IC50 [13]: 0.631 µM

Compound: C=CCOCC1Cn2nc([N+](=O)[O-])nc2O1 (stereo unspecified)
- IC50 [1]: 0.631 µM
- IC50 [2]: > 39.8 µM
- IC50 [3]: > 50.1 µM
- IC50 [4]: > 50.1 µM
- IC50 [5]: > 50.1 µM
- IC50 [6]: 1.26 µM
- IC50 [7]: > 50.1 µM
- IC50 at 48 h [8]: > 100 µM
- IC50 [9]: > 50.1 µM
- IC50 [10]: > 100 µM
- IC50 [11]: > 39.8 µM
- IC50 [12]: > 50.1 µM
- IC50 [13]: 0.501 µM

Compound: O=S(=O)(NCC(c1cccnc1)N1CCN(c2ccccc2F)CC1)c1ccc(F)cc1 (stereo unspecified)
- IC50 [1]: 0.2 µM
- IC50 [2]: > 39.8 µM
- IC50 [3]: > 50.1 µM
- IC50 [4]: > 50.1 µM
- IC50 [5]: > 50.1 µM
- IC50 [6]: 0.2 µM
- IC50 [7]: > 50.1 µM
- IC50 at 48 h [8]: > 100 µM
- IC50 [9]: 3.98 µM
- IC50 [10]: 0.0794 µM
- IC50 [11]: 25.1 µM
- IC50 [12]: 3.98 µM
- IC50 [13]: 0.501 µM
